Assay results: PubChem BioAssay (NCI)
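Tested at 5 concentrations; 48 h exposure; 96-well plates; endpoints linearly interpolated, else capped at highest concentration. TGI: concentration producing complete growth inhibition.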

Columns and labels:
Assay in all cases: NCI tumour cell line growth inhibition, 48 h
[1] = test system: SW-620 colon
[2] = test system: RXF 393 renal
[3] = test system: LOX IMVI melanoma
[4] = test system: SK-MEL-2 melanoma
[5] = test system: HCT-116 colon
[6] = test system: TK-10 renal
[7] = test system: NCI-H460 lung
[8] = test system: NCI-H522 lung
[9] = test system: U251 CNS
[10] = test system: MDA-N
[11] = test system: NCI/ADR-RES ovarian

## Cc1nnc(-n2c(O)cc(=O)n(-c3ccccc3)c2=S)nc1/C=C/c1ccc(N(C)C)cc1
[1]
  TGI: > 52.9 µM
[2]
  TGI: > 58.5 µM
[3]
  TGI: 17.5 µM
[4]
  TGI: 41.8 µM
[5]
  TGI: > 55.7 µM
[6]
  TGI: > 56.5 µM
[7]
  TGI: > 54.8 µM
[8]
  TGI: 8.33 µM
[9]
  TGI: > 46.4 µM
[10]
  TGI: > 100 µM
[11]
  TGI: > 100 µM

## Cc1ccc(S(=O)(=O)NC(=O)NC(Cc2ccc(O)c(O)c2)C(=O)O)cc1 (centres undefined)
[1]
  TGI: 61.9 µM
[2]
  TGI: > 100 µM
[3]
  TGI: > 100 µM
[4]
  TGI: > 100 µM
[5]
  TGI: > 100 µM
[6]
  TGI: > 100 µM
[7]
  TGI: > 100 µM
[8]
  TGI: > 100 µM
[9]
  TGI: > 100 µM
[10]
  TGI: > 100 µM
[11]
  TGI: > 100 µM

## CC[C@@]12C=CC(=S)N(CCSc3ccccc3)[C@@H]1c1c(n(S(=O)(=O)c3ccc(OC)cc3)c3ccccc13)CC2
[1]
  TGI: > 100 µM
[2]
  TGI: > 100 µM
[3]
  TGI: > 100 µM
[4]
  TGI: > 100 µM
[5]
  TGI: > 100 µM
[6]
  TGI: > 100 µM
[7]
  TGI: > 100 µM
[8]
  TGI: > 100 µM
[9]
  TGI: > 100 µM
[10]
  TGI: > 100 µM
[11]
  TGI: > 100 µM

## C=CCCCCCCCCCOC1C=CC(OC(C)=O)C(COC(C)=O)O1 (centres undefined)
[1]
  TGI: > 100 µM
[2]
  TGI: > 100 µM
[3]
  TGI: > 100 µM
[4]
  TGI: > 100 µM
[5]
  TGI: > 100 µM
[6]
  TGI: > 100 µM
[7]
  TGI: > 100 µM
[8]
  TGI: > 100 µM
[9]
  TGI: > 100 µM
[10]
  TGI: > 100 µM
[11]
  TGI: > 100 µM

## CC1CCc2sc3[nH]c(=S)n(-c4ccccc4)c(=O)c3c2C1 (centres undefined)
[1]
  TGI: > 100 µM
[2]
  TGI: > 100 µM
[3]
  TGI: > 100 µM
[4]
  TGI: 93.7 µM
[5]
  TGI: > 100 µM
[6]
  TGI: > 100 µM
[7]
  TGI: > 100 µM
[8]
  TGI: > 100 µM
[9]
  TGI: > 100 µM
[10]
  TGI: > 100 µM
[11]
  TGI: > 100 µM

## COc1cc2c(cc1OCCCC(=O)Nc1cc(C(=O)NCCCN(C)C)n(C)n1)N=CC1CCCN1C2=O (centres undefined)
[1]
  TGI: > 25 µM
[2]
  TGI: > 75.6 µM
[3]
  TGI: > 21.2 µM
[4]
  TGI: 32.7 µM
[5]
  TGI: > 37.7 µM
[6]
  TGI: 14.9 µM
[7]
  TGI: > 100 µM
[8]
  TGI: 15.1 µM
[9]
  TGI: > 20.7 µM
[10]
  TGI: 73.2 µM
[11]
  TGI: > 74.4 µM

## COc1cc2c(cc1OC)-c1cc3cc(OC)c(OC)cc3c(=O)n1CC2
[1]
  TGI: > 100 µM
[2]
  TGI: > 69.8 µM
[3]
  TGI: > 100 µM
[4]
  TGI: > 72.9 µM
[5]
  TGI: > 53.4 µM
[6]
  TGI: > 100 µM
[7]
  TGI: > 100 µM
[8]
  TGI: > 25.7 µM
[9]
  TGI: > 100 µM
[10]
  TGI: > 100 µM
[11]
  TGI: > 80.1 µM

## C#CCn1c(=O)c(Cl)cn(/C(=C/C(=O)OCC)C(=O)OCC)c1=O
[1]
  TGI: 5.46 µM
[2]
  TGI: 4.18 µM
[3]
  TGI: 19.9 µM
[4]
  TGI: 35.6 µM
[5]
  TGI: 14.4 µM
[6]
  TGI: 8.09 µM
[7]
  TGI: > 100 µM
[8]
  TGI: 12.6 µM
[9]
  TGI: 35 µM
[10]
  TGI: 29.9 µM
[11]
  TGI: > 79.3 µM

## c1ccc2nc(CCC3CCCCN3)ccc2c1 (centres undefined)
[1]
  TGI: > 100 µM
[2]
  TGI: > 100 µM
[3]
  TGI: > 100 µM
[4]
  TGI: > 100 µM
[5]
  TGI: > 100 µM
[6]
  TGI: > 100 µM
[7]
  TGI: > 100 µM
[8]
  TGI: > 100 µM
[9]
  TGI: > 100 µM
[10]
  TGI: > 100 µM
[11]
  TGI: > 100 µM

## CC12CCC(C(Nc3ccccn3)C1=O)C2(C)C (centres undefined)
[1]
  TGI: > 100 µM
[2]
  TGI: > 100 µM
[3]
  TGI: > 100 µM
[4]
  TGI: > 100 µM
[5]
  TGI: > 100 µM
[6]
  TGI: > 100 µM
[7]
  TGI: > 100 µM
[8]
  TGI: > 100 µM
[9]
  TGI: > 100 µM
[10]
  TGI: > 100 µM
[11]
  TGI: > 100 µM

## COc1ccccc1NC(=O)O/N=C(/Cl)C(C)C
[1]
  TGI: 3.39 µM
[2]
  TGI: 28.4 µM
[3]
  TGI: 6.75 µM
[4]
  TGI: 31 µM
[5]
  TGI: 29.3 µM
[6]
  TGI: 26.5 µM
[7]
  TGI: 37.5 µM
[8]
  TGI: 3.37 µM
[9]
  TGI: 30.6 µM
[10]
  TGI: 26.8 µM
[11]
  TGI: 35.5 µM

## C=C(C(=O)OC)c1cc2ccccc2n1S(=O)(=O)c1ccccc1
[1]
  TGI: 4.63 µM
[2]
  TGI: 2.54 µM
[3]
  TGI: 8.21 µM
[4]
  TGI: 10.5 µM
[5]
  TGI: > 34.4 µM
[6]
  TGI: 3.91 µM
[7]
  TGI: 8.23 µM
[8]
  TGI: 2.54 µM
[9]
  TGI: 5.12 µM
[10]
  TGI: 14 µM
[11]
  TGI: 18.7 µM

## COc1ccc(-c2cc(-c3cc(F)c(Cl)cc3Cl)on2)cc1OC
[1]
  TGI: > 100 µM
[2]
  TGI: 46.6 µM
[3]
  TGI: > 100 µM
[4]
  TGI: 97.7 µM
[5]
  TGI: > 100 µM
[6]
  TGI: > 100 µM
[7]
  TGI: > 100 µM
[8]
  TGI: > 100 µM
[9]
  TGI: > 100 µM
[10]
  TGI: 41 µM
[11]
  TGI: > 100 µM

## CCCCCCCCCCCCCCCCCCOCC(COP(=O)([O-])OCC[N+](C)(C)C)OC (centres undefined)
[1]
  TGI: 47.9 µM
[2]
  TGI: 42.2 µM
[3]
  TGI: 45 µM
[4]
  TGI: 54.9 µM
[5]
  TGI: 43.5 µM
[6]
  TGI: 41.5 µM
[7]
  TGI: 17.6 µM
[8]
  TGI: 32.7 µM
[9]
  TGI: 42.8 µM
[10]
  TGI: > 100 µM
[11]
  TGI: 64.1 µM

## Clc1nc(Cl)c(CBr)c(Cl)n1
[1]
  TGI: 3.99 µM
[2]
  TGI: 21.4 µM
[3]
  TGI: 4.14 µM
[4]
  TGI: 43.1 µM
[5]
  TGI: 5.55 µM
[6]
  TGI: 16.9 µM
[7]
  TGI: 18.5 µM
[8]
  TGI: 2.92 µM
[9]
  TGI: 14.6 µM
[10]
  TGI: 13.2 µM
[11]
  TGI: > 43.2 µM

## N#Cc1nc(CCC(c2nc(C#N)c(N)o2)N2C(=O)c3ccccc3C2=O)oc1N (centres undefined)
[1]
  TGI: > 100 µM
[2]
  TGI: > 100 µM
[3]
  TGI: > 100 µM
[4]
  TGI: > 100 µM
[5]
  TGI: > 100 µM
[6]
  TGI: > 100 µM
[7]
  TGI: > 100 µM
[8]
  TGI: > 100 µM
[9]
  TGI: > 100 µM
[10]
  TGI: > 100 µM
[11]
  TGI: > 100 µM

## CCOC(=O)Cn1c(=O)c2cc(-c3ccccc3)cc3c(Cl)nc4c(OC)c(OC)cc1c4c32
[1]
  TGI: > 61.2 µM
[2]
  TGI: 30.7 µM
[3]
  TGI: 26.4 µM
[4]
  TGI: 35.4 µM
[5]
  TGI: 29.1 µM
[6]
  TGI: 99.4 µM
[7]
  TGI: 39.1 µM
[8]
  TGI: 39.4 µM
[9]
  TGI: > 100 µM
[10]
  TGI: 43.2 µM
[11]
  TGI: 56.5 µM

## CCOC(=O)C(C(=O)OCC)=C1NC2(c3ccccc3Nc3ccc(C)cc32)C(C(=O)OC)S1 (centres undefined)
[1]
  TGI: > 100 µM
[2]
  TGI: 70.6 µM
[3]
  TGI: > 100 µM
[4]
  TGI: 63.1 µM
[5]
  TGI: > 100 µM
[6]
  TGI: > 100 µM
[7]
  TGI: > 100 µM
[8]
  TGI: > 100 µM
[9]
  TGI: > 100 µM
[10]
  TGI: > 100 µM
[11]
  TGI: > 100 µM

## Oc1cccc(-c2cn3cc(C(F)(F)F)ccc3n2)c1
[1]
  TGI: > 100 µM
[2]
  TGI: 50.2 µM
[3]
  TGI: > 100 µM
[4]
  TGI: > 100 µM
[5]
  TGI: > 100 µM
[6]
  TGI: 73.3 µM
[7]
  TGI: > 100 µM
[8]
  TGI: 35.4 µM
[9]
  TGI: > 100 µM
[10]
  TGI: > 100 µM
[11]
  TGI: 78.1 µM
